Measured values taken from patent US20230225315A1, “METHODS OF DELIVERING PLANT VIRUS-BASED NANOPESTICIDES” (priority 2019, published 2023).

Experiments:
[1] = Soil column mobility (soil transport behaviour); assay type: physicochemical
Method: […] […] (pH 7.0) to the centre of the soil surface at the top of the column We added 10 mM KP buffer (pH 7.0) at a constant flow rate of 1.5 ml min^−1 and collected the eluent in 500-μL fractions. Up to 150 fractions were collected in each trial (two trials for each formulation and depth) and stored at 4° C.
The elution fractions containing TMGMV, PhMV or CPMV were analysed by SDS-PAGE to determine the mass of nanoparticles recovered in each elution fraction. […] TMGMV and PhMV were analysed on 4-12% NuPage polyacrylamide SDS gels cast according to the Surecast Handcast protocol (Invitrogen). […]
All nanoparticles were imaged in triplicate and the images were analysed using ImageJ The area under the curve (AUC) of the standards was used to create a linear standard curve relating the AUC of the elution samples to the total mass of nanoparticles present in the corresponding elution fraction. […]
To establish the soil transport behaviour of each formulation, we conducted mobility studies using a cylindrical column of diameter 28 mm packed with topsoil at a constant bulk density of 0.32 g cm^−3. […] Fractions containing virus-based formulations were analysed by SDS-PAGE to determine the mass of recovered nanoparticles. […]

nematode = conditions: concentration to be achieved in the rhizosphere; cited from earlier work
[2] = cited from earlier work

Substance	soil depth penetrated by free Cy5 ([1]; 500 μg free Cy5, soil column 10 mm diameter)	mass of injected Cy5 recovered ([1]; free Cy5, column with a soil depth of 2 cm)	IC50 value (nematode)	solubility in water [2]
Cyanine 5 [Cy5]	≤ 4 cm	About 40%		
abamectin			1.309×10^−4 mg cm^−3	insoluble
